Experimental findings from patent US11850247B2, “Antiviral compounds” (REGENTS OF THE UNIVERSITY OF MINNESOTA, priority 2020, dated 2023) are described below.

Series [1] can be described thus: Cytotoxicity in TZM-GFP cells (XTT). Type of series: cell-based. The settings on record: human, 72 hours exposure, XTT. Here is the method: (§1) The cytotoxicity of each compound was also determined in TZM-GFP cells. Cells were plated at a density of 1×10^4 cells per well in a 96-well plate and were continuously exposed to increasing concentrations of a compound for 72 hours. The number of viable cells in each well was determined using a Cell Proliferation Kit II (XTT), and 50% cytotoxicity concentration (CC50) values were determined. All the cell-based assays were conducted in duplicate and in at least two independent experiments. For the EC50 and CC50 dose responses, values were plotted in GraphPad Prism 5 and analyzed with the log (inhibitor) vs. normalized response-variable slope equation. Final values were calculated in each independent assay and the average values were determined. Statistical analysis (calculation of standard deviation) was performed by using Microsoft Excel.

Another series deals with HIV-1. Nature of the series: Anti-HIV-1 activity in TZM-GFP cells (viral LTR-activated GFP expression). Type of series: cell-based. The settings on record: for EC50: Human immunodeficiency virus 1, HIV-1 strain MOI=1, GFP positive cells counted after 48 hours; for inhibition at 2 µM: Human immunodeficiency virus 1, 2 μM compound; for inhibition at 2 µM / inhibition at 20 µM: HIV-1 MOI=1; for inhibition at 20 µM: Human immunodeficiency virus 1, 20 μM compound. Here is the method: The potency of HIV-1 inhibition by a compound was based on its inhibitory effect on viral LTR-activated GFP expression compared with that of compound-free (DMSO) controls. Briefly, TZM-GFP cells were plated at density of 1×10^4 cells per well in a 96-well plate. 24 hours later, media was replaced with increasing concentrations of compound. 24 hours post treatment, cells were exposed to an HIV-1 strain (MOI=1).
as §1

Series [2] addresses covalently-crosslinked hexameric CA A14C/E45C/W184A/M185A (CA121) (Human immunodeficiency virus type 1 group M subtype B, UniProt P12493, A146C/E177C/M317A/W316A). Nature of the series: Thermal shift assay (TSA), CA hexamer stability. Conditions: compound 20 μM, ΔTm=Tm−T0 vs DMSO. In kind it is binding, HIV-1.

In series [1], `CN(C(=O)[C@H](Cc1ccccc1)NC(=O)Cc1ccc2ccccc2c1)c1ccc(Cl)cc1` [Example 12, (S)—N-(4-chlorophenyl)-N-methyl-2-(2-(naphthalen-2-yl)acetamido)-3-phenylpropanamide] displayed a CC50 at 72 h below 50 µM. Moreover, the response in the series on HIV-1 was half-maximal at 0.63 ± 0.02 µM (EC50). Moreover, the “TSA ΔTm (° C.)” value in series [2] was 7.0 °C.

`CN(C(=O)[C@H](Cc1ccccc1)NC(=O)Cc1ccc2ccccc2c1)c1cccc(Cl)c1` [Example 13, (S)—N-(3-chlorophenyl)-N-methyl-2-(2-(naphthalen-2-yl)acetamido)-3-phenylpropanamide] showed a CC50 at 72 h in series [1] below 50 µM. Besides, in the series on HIV-1, at 2 µM the inhibition was 0% and testing at 20 µM gave an inhibition of 94%. Further, the “TSA ΔTm (° C.)” value in series [2] turned out to be 4.3 °C.

For `CN(C(=O)[C@H](Cc1ccccc1)NC(=O)Cc1ccc2ccccc2c1)c1cccc(F)c1` [Example 14, (S)—N-(3-fluorophenyl)-N-methyl-2-(2-(naphthalen-2-yl)acetamido)-3-phenylpropanamide], the CC50 at 72 h in series [1] is below 50 µM. In the series with HIV-1, the inhibition at 2 µM was found to be 0% and 20 µM produced 97% inhibition. The “TSA ΔTm (° C.)” value in series [2] is 5.2 °C.

In series [1], `CCN(C(=O)[C@H](Cc1ccccc1)NC(=O)Cc1ccc2ccccc2c1)c1ccccc1` [Example 15, (S)—N-ethyl-2-(2-(naphthalen-2-yl)acetamido)-N,3-diphenylpropanamide] registered a CC50 at 72 h below 50 µM. In addition, in the series with HIV-1, the inhibition at 2 µM stood at 46% and the inhibition at 20 µM is 97%. Also, in series [2], the “TSA ΔTm (° C.)” value is 4.3 °C.

In series [1], `CN(C(=O)[C@H](Cc1ccccc1)NC(=O)Cc1cccc2ccccc12)c1ccccc1` [Example 16, (S)—N-methyl-2-(2-(naphthalen-1-yl)acetamido)-N,3-diphenylpropanamide] registered a CC50 at 72 h below 50 µM. In the series on HIV-1, this compound came in with an EC50 of 1.1 ± 0.04 µM. The “TSA ΔTm (° C.)” value in series [2] was determined as 6.0 °C.

Regarding `Cc1ccc(N(C)C(=O)[C@H](Cc2ccccc2)NC(=O)Cc2cccc3ccccc23)cc1` [Example 17, (S)—N-methyl-2-(2-(naphthalen-1-yl)acetamido)-3-phenyl-N-(p-tolyl)propanamide], the CC50 at 72 h in series [1] is below 50 µM. Besides, a half-maximal response in the series on HIV-1 (EC50) required 1 ± 0.2 µM. In addition, in series [2], the “TSA ΔTm (° C.)” value stood at 5.7 °C.

In series [1], `CN(C(=O)[C@H](Cc1ccccc1)NC(=O)Cc1cccc2ccccc12)c1ccc(Cl)cc1` [Example 18, (S)—N-(4-chlorophenyl)-N-methyl-2-(2-(naphthalen-1-yl)acetamido)-3-phenylpropanamide] displayed a CC50 at 72 h below 50 µM. In the series on HIV-1, this compound displayed an EC50 of 0.83 ± 0.03 µM. The “TSA ΔTm (° C.)” value in series [2] was 7.2 °C.

Take `CN(C(=O)[C@H](Cc1ccccc1)NC(=O)Cc1cccc2ccccc12)c1cccc(Cl)c1` [Example 19, (S)—N-(3-chlorophenyl)-N-methyl-2-(2-(naphthalen-1-yl)acetamido)-3-phenylpropanamide]: in series [1], the CC50 at 72 h is below 50 µM. In the series on HIV-1, this compound gave an inhibition at 2 µM of 53% and an inhibition at 20 µM of 96%. The “TSA ΔTm (° C.)” value in series [2] is 4.4 °C.

As to `CN(C(=O)[C@H](Cc1ccccc1)NC(=O)Cc1cccc2ccccc12)c1cccc(F)c1` [Example 20, (S)—N-(3-fluorophenyl)-N-methyl-2-(2-(naphthalen-1-yl)acetamido)-3-phenylpropanamide], the CC50 at 72 h in series [1] was below 50 µM. Moreover, in the series with HIV-1, the inhibition at 2 µM came out at 44% and the inhibition at 20 µM came to 97%. In addition, in series [2], the “TSA ΔTm (° C.)” value is 5.4 °C.

`CCN(C(=O)[C@H](Cc1ccccc1)NC(=O)Cc1cccc2ccccc12)c1ccccc1` [Example 21, (S)—N-ethyl-2-(2-(naphthalen-1-yl)acetamido)-N,3-diphenylpropanamide] yielded a CC50 at 72 h in series [1] below 50 µM. This compound also registered an EC50 in the series with HIV-1 of 1.8 ± 0.09 µM. In series [2], the “TSA ΔTm (° C.)” value came to 4.9 °C.

Regarding `CN(C(=O)[C@H](Cc1ccccc1)NC(=O)CN1C(=O)NC2(CCCCC2)C1=O)c1ccccc1` [Example 22, 2-(2-(2,4-dioxo-1,3-diazaspiro[4.5]decan-3-yl)acetamido)-N-methyl-N,3-diphenylpropanamide], the CC50 at 72 h in series [1] is above 100 µM. The EC50 in the series on HIV-1 was determined as 8.9 ± 1.5 µM. For the same compound, the “TSA ΔTm (° C.)” value in series [2] came out at 1.3 °C.

In turn, `COc1ccc(N(C)C(=O)[C@H](Cc2ccccc2)NC(=O)CN2C(=O)NC3(CCCCC3)C2=O)cc1` [Example 23, 2-(2-(2,4-dioxo-1,3-diazaspiro[4.5]decan-3-yl)acetamido)-N-(4-methoxyphenyl)-N-methyl-3-phenylpropanamide] gave a CC50 at 72 h in series [1] above 100 µM. In addition, the EC50 in the series on HIV-1 is 5.1 ± 2 µM. For the same compound, the “TSA ΔTm (° C.)” value in series [2] came to 1.8 °C.

In series [1], `Cc1ccc(N(C)C(=O)[C@H](Cc2ccccc2)NC(=O)CN2C(=O)NC3(CCCCC3)C2=O)cc1` [Example 24, 2-(2-(2,4-dioxo-1,3-diazaspiro[4.5]decan-3-yl)acetamido)-N-methyl-3-phenyl-N-(p-tolyl)propenamide] had a CC50 at 72 h above 100 µM. This compound registered an EC50 in the series on HIV-1 of 1.9 ± 0.5 µM. For the same compound, the “TSA ΔTm (° C.)” value in series [2] worked out at 2.7 °C.

In turn, `CN(C(=O)[C@H](Cc1ccccc1)NC(=O)CN1C(=O)NC2(CCCCC2)C1=O)c1ccc(F)cc1` [Example 25, 2-(2-(2,4-dioxo-1,3-diazaspiro[4.5]decan-3-yl)acetamido)-N-(4-fluorophenyl)-N-methyl-3-phenylpropanamide] returned a CC50 at 72 h in series [1] above 50 µM. For the same compound, in the series on HIV-1, the inhibition at 2 µM was 9% and at 20 µM the inhibition was 99%. For the same compound, the “TSA ΔTm (° C.)” value in series [2] came to 3.1 °C.

With `CN(C(=O)[C@H](Cc1ccccc1)NC(=O)CN1C(=O)NC2(CCCCC2)C1=O)c1cccc(F)c1` [Example 26, 2-(2-(2,4-dioxo-1,3-diazaspiro[4.5]decan-3-yl)acetamido)-N-(3-fluorophenyl)-N-methyl-3-phenylpropanamide], the CC50 at 72 h in series [1] was above 50 µM. Moreover, in the series with HIV-1, testing at 2 µM gave an inhibition of 24% and the inhibition at 20 µM amounted to 98%. In addition, the “TSA ΔTm (° C.)” value in series [2] was 1.3 °C.

Turning to `CN(C(=O)[C@H](Cc1ccccc1)NC(=O)CN1C(=O)NC2(CCCCC2)C1=O)c1ccc(Cl)cc1` [Example 27, N-(4-chlorophenyl)-2-(2-(2,4-dioxo-1,3-diazaspiro[4.5]decan-3-yl)acetamido)-N-methyl-3-phenylpropanamide], the CC50 at 72 h in series [1] is above 100 µM. Besides, in the series with HIV-1, it took 2.5 ± 0.5 µM to reach a half-maximal effect (EC50). For the same compound, in series [2], the “TSA ΔTm (° C.)” value is 2.2 °C.

As to `CN(C(=O)[C@H](Cc1ccccc1)NC(=O)CN1C(=O)NC2(CCCCC2)C1=O)c1cccc(Cl)c1` [Example 28, N-(3-chlorophenyl)-2-(2-(2,4-dioxo-1,3-diazaspiro[4.5]decan-3-yl)acetamido)-N-methyl-3-phenylpropanamide], the CC50 at 72 h in series [1] was below 50 µM. In the series on HIV-1, this compound yielded an inhibition at 2 µM of 9% and an inhibition at 20 µM of 98%. The “TSA ΔTm (° C.)” value in series [2] was determined as 3.3 °C.

In series [1], `CN(C(=O)[C@H](Cc1ccccc1)NC(=O)CN1C(=O)NC2(CCCCC2)C1=O)c1cccc(Br)c1` [Example 29, N-(3-bromophenyl)-2-(2-(2,4-dioxo-1,3-diazaspiro[4.5]decan-3-yl)acetamido)-N-methyl-3-phenylpropanamide] returned a CC50 at 72 h above 50 µM. Further, in the series on HIV-1, the EC50 is above 20 µM. For the same compound, in series [2], the “TSA ΔTm (° C.)” value is 1.5 °C.

For the compound `CCN(C(=O)[C@H](Cc1ccccc1)NC(=O)CN1C(=O)NC2(CCCCC2)C1=O)c1ccccc1` [Example 30, 2-(2-(2,4-dioxo-1,3-diazaspiro[4.5]decan-3-yl)acetamido)-N-ethyl-N,3-diphenylpropanamide], the CC50 at 72 h in series [1] was above 100 µM. Also, the EC50 with HIV-1 turned out to be 7.6 ± 0.9 µM. Further, in series [2], the “TSA ΔTm (° C.)” value is 2.0 °C.

`CN(C(=O)[C@H](Cc1ccccc1)NC(=O)Cn1c(=O)[nH]c2ccccc2c1=O)c1ccccc1` [Example 31, (S)-2-(2-(2,4-dioxo-1,4-dihydroquinazolin-3(2H)-yl)acetamido)-N-methyl-N,3-diphenylpropanamide]: the CC50 at 72 h in series [1] was above 100 µM. The compound also had an EC50 in the series on HIV-1 of 6.9 ± 0.8 µM. Besides, the “TSA ΔTm (° C.)” value in series [2] came to 2.7 °C.

`CN(C(=O)[C@H](Cc1ccccc1)NC(=O)Cn1c(=O)[nH]c2ccccc2c1=O)c1ccc(F)cc1` [Example 32, (S)-2-(2-(2,4-dioxo-1,4-dihydroquinazolin-3(2H)-yl)acetamido)-N-(4-fluorophenyl)-N-methyl-3-phenylpropanamide] had a CC50 at 72 h in series [1] above 100 µM. In the series with HIV-1, this compound displayed an EC50 of 8 ± 1.3 µM. Also, the “TSA ΔTm (° C.)” value in series [2] was found to be 2.4 °C.

With `CN(C(=O)[C@H](Cc1ccccc1)NC(=O)CNC(=O)c1ccccc1)c1ccccc1` [Example 34, (S)—N-(2-((1-(methyl(phenyl)amino)-1-oxo-3-phenylpropan-2-yl)amino)-2-oxoethyl)benzamide], the CC50 at 72 h in series [1] is above 50 µM. In the series on HIV-1, this compound gave an inhibition at 2 µM of 15% and an inhibition at 20 µM of 96%. In addition, in series [2], the “TSA ΔTm (° C.)” value came out at 1.3 °C.

In turn, `Cc1ccc(N(C)C(=O)[C@H](Cc2ccccc2)NC(=O)CNC(=O)c2ccccc2)cc1` [Example 35, (S)—N-(2-((1-(methyl(p-tolyl)amino)-1-oxo-3-phenylpropan-2-yl)amino)-2-oxoethyl)benzamide] yielded a CC50 at 72 h in series [1] above 50 µM. This compound also displayed an EC50 with HIV-1 of 1.6 ± 0.02 µM. Besides, in series [2], the “TSA ΔTm (° C.)” value was found to be 5.0 °C.
